Measured values published in patent US9700541B2, “Seizure therapy” (Creighton University, priority 2012, dated 2017).
Entries after “also recorded” stand apart in the source; their conditions may differ.

Test system: acute mouse hippocampal slices
Test: Extracellular recordings in CA3 stratum radiatum of acute hippocampal slices after complex I inhibition
Type: cell-based
Description: FIG. 5A depicts electrophysiological recordings showing inhibition of mitochondrial complex I of the electron transport chain creates a hyperexcitable environment in acute mouse hippocampal slices. Epilepsy is defined as a neuronal state of hyperexcitability and hypersynchrony. […] The middle trace is an expansion of field potential marked by an asterisk in the top trace. Time-frequency analysis was performed on the signals to examine the component frequencies occurring during the field potentials. High frequency oscillations (HF05) in the 100-200 Hz bandwidth (called ripples) are normal and reflect small clusters of neurons firing action potentials synchronously. […] Fast ripples occur in humans and animals with epilepsy and are biomarkers for seizure-genic foci.
In Kv1.1−/− hippocampal slices, pathological high frequency oscillations are prevalent throughout the in Kv1.1−/− hippocampal network. In addition, there is an increase in neurotransmitter release probabilities at specific hippocampal circuit synapses. To experimentally mimic the mitochondrial pathology seen in epilepsy, a drug that impairs mitochondrial function at respiratory complex I, rotenone, was applied to control tissue. […] Fast ripples occur in humans and animals with epilepsy and are biomarkers for seizure-genic foci.

Compound: C=C(C)[C@H]1Cc2c(ccc3c2O[C@@H]2COc4cc(OC)c(OC)cc4[C@@H]2C3=O)O1 [rotenone]
- promotion of seizures (acute application of rotenone to control tissue): sufficient to promote seizures
- rate and amplitudes of spontaneous field potentials (rotenone 100 nM, 30 min application): increases
- high frequency oscillations (fast ripples), spectral organization (rotenone application, control tissue): spectral disorganization and the generation of faster HFOs; also recorded: promotes spectral disorganization and the generation of pathologic high frequency oscillations
- intensity of ripples and fast ripples (rotenone applied to slices): increases
- seizure-like events following high potassium (8 mM) (rotenone-treated vs vehicle-treated slice): greater in amplitude and longer in duration
